# How the values were obtained:
# Raji-luc lymphoma cells = experiment: BCMAxCD3 mediated cell killing with human T cells, with or without GSI (luciferase viability); type: cell-based; details: with or without 1 μM GSI, 60 hours
# Procedure: CD3^+ T cells from PBMCs (Stem Cell Technologies) were negatively selected using EasySep Human T cell enrichment kit (Stem Cell Technologies). 10,000 target lymphoma cells expressing luciferase (Raji-luc) were treated with 1 μM GSI. After 24 hours, cells were seeded with 50,000 CD3^+ pan T cells in a clear 96-well V-bottom plate. Cells were further treated with a range of BCMAxCD3 bispecific concentrations with or without 1 μM GSI. 60 hours after treatment, luciferase activity in treated cells was analyzed using NeoLite reagent kit (Perkin Elmer) and acquired on VictorX multimode plate reader (Perkin Elmer). Cell viability was calculated by dividing luciferase activity of treated cells over luciferase activity of untreated control (no BCMAxCD3 bispecific antibody added).
# [1] = test system: adult patients with advanced multiple myeloma; experiment: Phase 1 clinical study NCT03269136, patient response per IMWG criteria; type: in vivo, human
# From the text: This Example illustrates an ongoing Phase 1 open-label, multicenter clinical study of PF-06863135 (BCMA×CD3 bispecific) as monotherapy and in combination with sasanlimab, lenalidomide or pomalidomide, in adult patients with advanced multiple myeloma who have relapsed from or are refractory to standard therapy. The study has been registered on ClinicalTrials.gov with identifier NCT03269136 and was first posted August 2017. Study results for Part 1 of the trial and additional arms for the study are described in this Example.
# Part 1 of the Study is the […] single agent dose escalation arm at the dose levels of 0.1, 0.3, 1, 3, 10, 30, and 50 μg/kg Q1W by intravenous (IV) administration, and at the dose levels of 80, 130, 215, 360, 600 and 1000 μg/kg Q1W by subcutaneous (SC) administration. Upon reaching maximum tolerated dose (MTD)/maximum administered dose (MAD), patients can be treated at a dose level selected from the foregoing dose levels described in this paragraph, and below the MTD/MAD fora Q2W administration, both IV and SC, to further support the recommended phase 2 dose (RP2D) decision. For the study, dose limiting toxicity observation period is set at 21 days for Q1W dosing and 28 days for Q2W dosing. The treatment cycle, aka cycle, for Q1W dosing would be 3 weeks, and for Q2W dosing would be four weeks.
# Clinical Outcome of Part 1 of the Study. As of 15 Apr. 2020, a total of 23 patients were enrolled in Part 1 of the study and had been treated with PF-06863135 administered intravenously (IV) at 0.1 (N=2), 0.3 (N=3), 1 (N=2), 3 (N=3), 10 (N=2), 30 (N=5), and 50 (N=6) μg/kg. As of Aug. 21, 2020, a total of 30 patients were enrolled in Part 1 of the study and had been treated with PF-06863135 administered subcutaneously (SC) at 80 (N=6), 130 (N=4), 215 (N=4), 360 (N=4), 600 (N=6) and 1000 (N=6) μg/kg. Safety and efficacy data were available for in 23 IV and 30 SC treated patients per IMWG (International Myeloma Working Group) criteria.
# Part 1.1 of the Study is an alternative maintenance dose escalation arm for single agent PF-06863135. If excessive toxicity occurs or the maximum tolerated dose (MTD)/maximum administered dose (MAD) is reached at a dose level that is earlier than desired in Part 1 of the study described above, a priming dose will be administered one week prior to the day 1 cycle 1 administration of the dose (maintenance dose) at this dose level and for all subsequent dose levels in the dose escalation that may be initiated for Part 1.1. The priming dosing will be at a lower dose level than the maintenance dose.
# Clinical outcome of Part 1.1 of the Study. As of Feb. 4, 2021, a total of 20 patients were enrolled and treatment in Part 1.1 of the Study, with cohort of 7 patients at a 600 μg/kg priming dose followed by 1000 μg/kg Q1W dosing, and a cohort of 13 patients at a 600 μg/kg priming dose followed by 1000 μg/kg Q2W dosing. The CRS in these two cohorts is described in Table 13. Introducing of priming dose decreased medium duration of CRS by 50%, from 4 days to 2 days. The dose frequency in part 1.1 of the study (Q1W v. Q2W) had no impact on the CRS. Patient response of Part 1.1 of the Study is described in Table 14.
# [2] = 600 μg/kg priming, 1000 μg/kg Q1W SC, N = 7
# [3] = 600 μg/kg priming, 1000 μg/kg Q2W SC, N = 13
substance,measurement,setting,value
"PF-06863135: heterodimeric humanized full-length bispecific antibody, one BCMA binding arm and one CD3 binding arm, modified human IgG2Δa Fc",Raji Cell Viability,Raji-luc lymphoma cells; BCMA × CD3 0.00064 nM,94 ± 3.7 % control
same,Raji Cell Viability,Raji-luc lymphoma cells; BCMA × CD3 0.0032 nM,107 ± 4.5 % control
same,Raji Cell Viability,Raji-luc lymphoma cells; BCMA × CD3 0.016 nM,105.8 ± 10.2 % control
same,Raji Cell Viability,Raji-luc lymphoma cells; BCMA × CD3 0.08 nM,89.3 ± 5.7 % control
same,Raji Cell Viability,Raji-luc lymphoma cells; BCMA × CD3 0.4 nM,88.1 ± 18.4 % control
same,Raji Cell Viability,Raji-luc lymphoma cells; BCMA × CD3 2 nM,71 ± 9.7 % control
same,Raji Cell Viability,Raji-luc lymphoma cells; BCMA × CD3 10 nM,82.1 ± 9.7 % control
same,Raji Cell Viability,Raji-luc lymphoma cells; BCMA × CD3 50 nM,80 ± 13.2 % control
same,patients achieving a complete response,[1]; 50 μg/kg IV,1 patient
same,OR (percent),"[1]; 215 μg/kg SC, N = 4",(75%)
same,OR (responders/patients),"[1]; 215 μg/kg SC, N = 4",3/4
same,PR (number of patients),"[1]; 215 μg/kg SC, N = 4",1
same,sCR (number of patients),"[1]; 215 μg/kg SC, N = 4",2
same,OR (percent),"[1]; 360 μg/kg SC, N = 4",(75%)
same,OR (responders/patients),"[1]; 360 μg/kg SC, N = 4",3/4
same,PD (number of patients),"[1]; 360 μg/kg SC, N = 4",1
same,VGPR (number of patients),"[1]; 360 μg/kg SC, N = 4",2
same,sCR (number of patients),"[1]; 360 μg/kg SC, N = 4",1
same,OR (percent),"[1]; 600 μg/kg SC, N = 6",(67%)
same,OR (responders/patients),"[1]; 600 μg/kg SC, N = 6",4/6
same,PD (number of patients),"[1]; 600 μg/kg SC, N = 6",1
same,VGPR (number of patients),"[1]; 600 μg/kg SC, N = 6",2
same,sCR (number of patients),"[1]; 600 μg/kg SC, N = 6",2
same,CR (number of patients),[1]; [2],2
same,OR (percent),[1]; [2],(57%)
same,OR (responders/patients),[1]; [2],4/7
same,PR (number of patients),[1]; [2],1
same,VGPR (number of patients),[1]; [2],1
same,OR (percent),[1]; [3],(54%)
same,OR (responders/patients),[1]; [3],7/13
same,PD (number of patients),[1]; [3],3
same,PR (number of patients),[1]; [3],3
same,VGPR (number of patients),[1]; [3],4
same,CR (number of patients),"[1]; 1000 μg/kg SC, N = 6",1
same,OR (percent),"[1]; 1000 μg/kg SC, N = 6",(83%)
same,OR (responders/patients),"[1]; 1000 μg/kg SC, N = 6",5/6
same,PD (number of patients),"[1]; 1000 μg/kg SC, N = 6",1
same,PR (number of patients),"[1]; 1000 μg/kg SC, N = 6",1
same,VGPR (number of patients),"[1]; 1000 μg/kg SC, N = 6",3
same,clinical efficacy,[1]; 600 and 1000 μg/kg SC,seen in most patients
same,subjects with best response of stable disease,[1]; IV cohorts (0.3-50 μg/kg),Ten
same,patients achieving a minimal response,"[1]; IV cohorts, at 3 μg/kg and 50 μg/kg IV",2 patients

# From patent US20230340137A1, “METHODS, THERAPIES AND USES FOR TREATING CANCER” (PFIZER INC., priority 2020, published 2023)
